Measured values published in patent US12440500B2, “Phytoecdysones and the derivatives thereof for use in the treatment of neuromuscular diseases” (BIOPHYTIS, priority 2019, dated 2025).

Key:
Type in all cases: in vivo, mouse
SMA mice [1] = experiment: Open-field test (spontaneous displacement capacities)
Method: Phenotypic analyses of type 2 severe SMA mice treated or not starting from P0 with BIO101 were conducted. Longitudinally every two days, a test was conducted of the motor capacities of the mice from P5 to P9. The inventors evaluated the spontaneous displacement capacities by the open-field test, as well as the muscular fatigability by grip test, such as described hereinabove (Biondi et al., 2008; Branchu et al., 2013; Chali et al., 2016). The device used for the open-field test is different according to the age of the mice. For animals from P0 to P6, it is formed of a 15×15×5 cm plastic box with a grid pattern of the field divided into 25 3 cm×3 cm squares. For animals from P7 to P21, it is formed of a 28×28×5 cm plastic box with a grid pattern of the field divided into 16 7 cm×7 cm squares. The mice were tested individually and the evaluation device was washed after each session. Each mouse initially placed at the center of the field was able to move about freely for 5 minutes. The behavioral measurements are recorded by the experimenter during these 5 minutes and the total number of squares crossed was recorded.

AKT = experiment: Western blot, phosphorylation of AKT in SMA mice
Method: The frozen muscle Plantaris was homogenized in extraction buffer by mechanical grinding. The supernatant containing the protein extract was sampled, then the protein extracts were then dosed according to the Lowry protein assay. An electrophoresis on SDS-PAGE gel was conducted, then the separated proteins were transferred onto membranes. The primary antibodies used were the following: mouse monoclonal anti-SMN (1:5,000), rabbit polyclonal anti-Ser 473 phospho-AKT (1:1000), rabbit polyclonal anti-AKT ( 1/100), rabbit monoclonal anti phospho-ERK ½ (1:500), anti-MAP Kinase ½ (ERK ½) (1:1000). […] The optical density of each specific band was quantified with image processing software by subtracting the background and by normalizing with the optical density of the β-actin bands. For the controls treated with the vehicle, the values obtained were determined at 1 and the values of the other groups were normalized in relation to these controls and expresses as a relative quantity. […] The quantitative values of pAKT at the Plantaris represent 3 mice per group treated with the vehicle (control or SMA) and 4 mice treated with BIO101. The quantitative values of pERK at the Plantaris represent at least 4 mice per group. The quantitative values of SMN represent n=2. […]

SMA mice [2] = experiment: Grip test (muscular fatigability)
Method: Phenotypic analyses of type 2 severe SMA mice treated or not starting from P0 with BIO101 were conducted. Longitudinally every two days, a test was conducted of the motor capacities of the mice from P5 to P9. The inventors evaluated the spontaneous displacement capacities by the open-field test, as well as the muscular fatigability by grip test, such as described hereinabove (Biondi et al., 2008; Branchu et al., 2013; Chali et al., 2016).
Indeed, the number of squares that they are able to cross is 10 at P5, 6 at P7 and 8 at P9 versus 17 at P5, 12 at P7 and 24 at P9 in the group of healthy control mice (with p<0.01, p<0.0001 and p<0.001 respectively). […] At P9, this difference is not significant but the treatment with BIO101 tends to have a beneficial effect with mice that are able to cross 11 squares in the group of SMA mice BIO101 in relation to 8 squares in the SMA Vehicle group, p=ns). In order to evaluate muscular fatigability, the gripping force of the hind feet of the mice was tested from P5 to P9 (grip test). The mice are suspended via their hind feet from a thin metal rod suspended in the air, horizontally. The time spent hanging on is recorded. Each mouse was subjected to five successive attempts with a rest period of one minute between two tests. Only the best test was retained for the evaluation of the muscular functions.

ERK = experiment: Western blot, phosphorylation of ERK in SMA mice
[3] = system: slow, intermediate and fast motor neurons of SMA mice; experiment: Motor neuron sub-populations (ChAT/ERRβ/MMP9 co-labeling, lumbar spinal cord)
Method: In a manner complementary to the quantitative analysis of the number of motor neurons and of the size of their soma as well as the qualitative study concerning their location (medial or lateral in the ventral spinal cord), we studied the impact of the treatment by BIO101 on the protection of the sub-populations of motor neurons (slow motor neurons, intermediate motor neurons and fast motor neurons). This qualitative analysis of the sub-populations of motor neurons was carried out on thick cross-sections of the lumbar region of the spinal cord (L1-L5) of control or SMA mice treated or not with BIO101 by immunofluorescent labeling with Choline Acetyltransferase such as was described hereinabove (Biondi et al., 2008; Branchu et al., 2013) as well as an analysis of the type of motor neurons by immunofluorescence co-labeling with Estrogen-related receptor-β (ERRβ), a specific marker of the slow motor neurons, or with Matrix metallopeptidase 9 (MMP9), a specific marker of the fast motor neurons.
The anesthetized mice underwent an intracardiac infusion with PBS. The spinal cords of the mice were taken, fixed then rinsed. The lumbar region of the spinal cords (L1-L5) was coated in a 4% solution of agarose. 50 μm cross-sections were made using a vibratome over the entire length of the sample. One section every 5 sections of spinal cord was then used for the immunohistochemical analyses. […]

[4] = muscle Plantaris, SMA mice treated P0 to P11
[5] = spinal cord, SMA mice treated daily for 11 days

Structure (SMILES): CC(C)(O)CC[C@@H](O)[C@](C)(O)[C@H]1CC[C@@]2(O)C3=CC(=O)[C@@H]4C[C@@H](O)[C@@H](O)C[C@]4(C)[C@H]3CC[C@]12C [BIO101, 20-hydroxyecdysone]
- number of squares crossed (open-field test) (SMA mice [1]; P5, SMA mice (vehicle 10)): 11 squares
- number of squares crossed (open-field test) (SMA mice [1]; P7, SMA mice (vehicle 6), p<0.05): 10 squares
- number of squares crossed (open-field test) (SMA mice [1]; P9, SMA mice (vehicle 8), p=ns): 11 squares
- phosphorylation of AKT (pAKT) (AKT; [4]): very substantially increasing
- level of pAKT (AKT; [5]): increasing
- hanging time (grip test) (SMA mice [2]; P5, SMA mice (vehicle 0.2), p<0.05): 2.3 s
- hanging time (grip test) (SMA mice [2]; P7, SMA mice (vehicle 6.2), p=ns): 12.2 s
- hanging time (grip test) (SMA mice [2]; P9, SMA mice (vehicle 5.6), p<0.01): 20.9 s
- level of phosphorylation of ERK (pERK) (ERK; [4]): greatly decreased
- level of pERK (ERK; [5]): decreasing
- number of fast motor neurons (ChAT+MMP9+) ([3]; SMA mice treated P0 to P11 (SMA vehicle 11), p<0.05): 14
- number of slow motor neurons (ChAT+ERRβ+) ([3]; between healthy vehicle, SMA vehicle and SMA treated groups): does not vary significantly
